# In patent US9913843B2, “Protein kinase C inhibitors and uses thereof” (Rigel Pharmaceuticals, Inc., priority 2012, dated 2018):
# Read-outs that look alike come from different tables or passages of the source.
# Tested on: PKC mediated IL-2 production in human primary T cells
# Test: IL-2 ELISA, human primary T cell, anti CD3+CD28+ (whole cell functional assay for PKC mediated IL-2 production)
# Type: cell-based
# Method in brief: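 IL-2 in supernatants was quantified by ELISA after 24 h at 37 °C. Before stimulation with plate-coated anti-CD3 (1 μg/ml) and anti-CD28 (5 μg/ml), T cells expanded from PBMC were exposed to compound for 1 h; the counter-screen replaced antibodies with PMA 0.5 ng/ml and ionomycin 0.1 μM (final).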
# [1] = 24 h, human primary T cells stimulated with anti-CD3 + anti-CD28, IL-2 by ELISA, read-out: IC50 for blocking IL-2 production
# [2] = human primary T cells stimulated with anti-CD3 + anti-CD28, 24 h, IL-2 by ELISA, 8 pt, read-out: IL2 ELISA, Human primary T cell, anti-CD3 + CD28, 8 pt (IC50)
Compound,IC50 [1] [µM],IC50 [2] [µM]
"COc1ccc(Nc2ncc(N(C)C)c(NC[C@@H]3CCCN4CCCC[C@H]34)n2)cc1-n1nnnc1C [Compound 90, N4-(((1S,9aR)-octahydro-1H-quinolizin-1-yl)methyl)-N2-(4-methoxy-3-(5-methyl-1H-tetrazol-1-yl)phenyl)-N5,N5-dimethylpyrimidine-2,4,5-triamine]",< 30,9.82
"COc1ccc(Nc2ncc(F)c(NC[C@@H]3CCCN4CCCC[C@H]34)n2)cc1-c1cnco1 [Compound 22, 5-fluoro-N4-(((1S,9aR)-octahydro-1H-quinolizin-1-yl)methyl)-N2-(4-methoxy-3-(oxazol-5-yl)phenyl)pyrimidine-2,4-diamine]",< 30,0.697
"Cc1ccc(Nc2nccc(NC[C@@H]3CCCN4CCCC[C@H]34)n2)cc1-n1cnnn1 [Compound 47, N4-(((1S,9aR)-octahydro-1H-quinolizin-1-yl)methyl)-N2-(4-methyl-3-(1H-tetrazol-1-yl)phenyl)pyrimidine-2,4-diamine]",< 30,0.649
"N#Cc1cnc(Nc2cc(-n3cnnn3)c(C3CC3)cc2F)nc1NC[C@@H]1CCCN2CCCC[C@H]12 [Compound 116, 4-(((1S,9aR)-octahydro-1H-quinolizin-1-yl)methylamino)-2-(4-cyclopropyl-2-fluoro-5-(1H-tetrazol-1-yl)phenylamino)pyrimidine-5-carbonitrile]",< 30,0.0074
"CN(C)c1cnc(Nc2ccc(C3CC3)c(C#N)c2)nc1NC[C@@H]1CCCN2CCCC[C@H]12 [Compound 94, 5-(4-(((1S,9aR)-octahydro-1H-quinolizin-1-yl)methylamino)-5-(dimethylamino)pyrimidin-2-ylamino)-2-cyclopropylbenzonitrile]",< 30,2.57
"COc1cnc(Nc2cc(-n3cnnn3)c(C3CC3)cc2F)nc1NC[C@@H]1CCCN2CCCC[C@H]12 [Compound 72, N2-(4-cyclopropyl-2-fluoro-5-(1H-tetrazol-1-yl)phenyl)-N4-(((1S,9aR)-octahydro-1H-quinolizin-1-yl)methyl)-5-methoxypyrimidine-2,4-diamine]",< 30,1.27
"O=c1[nH]c2cc(Nc3ncc(C(F)(F)F)c(NC[C@@H]4CCCN5CCCC[C@H]45)n3)ccc2o1 [Compound 112, 5-(4-(((1S,9aR)-octahydro-1H-quinolizin-1-yl)methylamino)-5-(trifluoromethyl)pyrimidin-2-ylamino)benzo[d]oxazol-2(3H)-one]",< 30,21.7
"COc1cnc(Nc2cccc(C#N)c2)nc1NC[C@@H]1CCCN2CCCC[C@H]12 [Compound 79, 3-(4-(((1S,9aR)-octahydro-1H-quinolizin-1-yl)methylamino)-5-methoxypyrimidin-2-ylamino)benzonitrile]",< 30,5.35
"COc1cc(Nc2ncc(OC)c(NC[C@@H]3CCCN4CCCC[C@H]34)n2)cc(-n2nnnc2C)c1 [Compound 78, N4-(((1S,9aR)-octahydro-1H-quinolizin-1-yl)methyl)-5-methoxy-N2-(3-methoxy-5-(5-methyl-1H-tetrazol-1-yl)phenyl)pyrimidine-2,4-diamine]",< 30,2.24
"CC1(C)Oc2cc(Nc3ncc(F)c(NC[C@@H]4CCCN5CCCC[C@H]45)n3)cnc2N(CC2CC2)C1=O [Compound 31, 7-(4-(((1S,9aR)-octahydro-1H-quinolizin-1-yl)methylamino)-5-fluoropyrimidin-2-ylamino)-4-(cyclopropylmethyl)-2,2-dimethyl-2H-pyrido[3,2-b][1,4]oxazin-3(4H)-one]",< 30,0.359
"Cc1nnnn1-c1ccc(F)c(Nc2ncc(N(C)C)c(NC[C@@H]3CCCN4CCCC[C@H]34)n2)c1 [Compound 89, N2-(2-fluoro-5-(5-methyl-1H-tetrazol-1-yl)phenyl)-N4-(((1S,9aR)-octahydro-1H-quinolizin-1-yl)methyl)-N5,N5-dimethylpyrimidine-2,4,5-triamine]",< 30,14.6
"COc1ccc(Nc2ncc(C(F)(F)F)c(NC[C@@H]3CCCN4CCCC[C@H]34)n2)cc1-n1nnnc1C [Compound 105, 5-(trifluoromethyl)-N4-(((1S,9aR)-octahydro-1H-quinolizin-1-yl)methyl)-N2-(4-methoxy-3-(5-methyl-1H-tetrazol-1-yl)phenyl)pyrimidine-2,4-diamine]",< 30,11.8
"COc1ccc(Nc2ncc(F)c(NC[C@@H]3CCCN4CCCC[C@H]34)n2)cc1-n1nnnc1C [Compound 6, 5-fluoro-N4-(((1S,9aR)-octahydro-1H-quinolizin-1-yl)methyl)-N2-(4-methoxy-3-(5-methyl-1H-tetrazol-1-yl)phenyl)pyrimidine-2,4-diamine]",< 30,0.0889
"Cc1cnc(Nc2ccc(C3CC3)c(C#N)c2)nc1NC[C@@H]1CCCN2CCCC[C@H]12 [Compound 68, 5-(4-(((1S,9aR)-octahydro-1H-quinolizin-1-yl)methylamino)-5-methylpyrimidin-2-ylamino)-2-cyclopropylbenzonitrile]",< 30,0.95
"COc1cnc(Nc2cc(-n3nnn(C)c3=O)c(C3CC3)cc2F)nc1NC[C@@H]1CCCN2CCCC[C@H]12 [Compound 74, 1-(5-(4-(((1S,9aR)-octahydro-1H-quinolizin-1-yl)methylamino)-5-methoxypyrimidin-2-ylamino)-2-cyclopropyl-4-fluorophenyl)-4-methyl-1H-tetrazol-5(4H)-one]",< 30,2.19
"Fc1cc(C2CC2)c(-n2cnnn2)cc1Nc1ncc(C(F)(F)F)c(NC[C@@H]2CCCN3CCCC[C@H]23)n1 [Compound 100, N2-(4-cyclopropyl-2-fluoro-5-(1H-tetrazol-1-yl)phenyl)-5-(trifluoromethyl)-N4-(((1S,9aR)-octahydro-1H-quinolizin-1-yl)methyl)pyrimidine-2,4-diamine]",< 30,4.21
"COc1cnc(Nc2ccc(F)c(-n3nnnc3C)c2)nc1NC[C@@H]1CCCN2CCCC[C@H]12 [Compound 75, N2-(4-fluoro-3-(5-methyl-1H-tetrazol-1-yl)phenyl)-N4-(((1S,9aR)-octahydro-1H-quinolizin-1-yl)methyl)-5-methoxypyrimidine-2,4-diamine]",< 30,2.91
"Fc1cnc(Nc2ccccc2)nc1NC[C@@H]1CCCN2CCCC[C@H]12 [Compound 13, 5-fluoro-N4-(((1S,9aR)-octahydro-1H-quinolizin-1-yl)methyl)-N2-phenylpyrimidine-2,4-diamine]",< 30,4.48
"N#Cc1cccc(Nc2nccc(NC[C@@H]3CCCN4CCCC[C@H]34)n2)c1 [Compound 53, 3-(4-(((1S,9aR)-octahydro-1H-quinolizin-1-yl)methylamino)pyrimidin-2-ylamino)benzonitrile]",< 30,2.53
"C[C@H](O)COc1cc(F)c(Nc2ncc(Cl)c(NC[C@@H]3CCCN4CCCC[C@H]34)n2)cc1-n1nnn(C)c1=O [Compound 152, 1-(5-((5-chloro-4-((((1S,9aR)-octahydro-2H-quinolizin-1-yl)methyl)amino)pyrimidin-2-yl)amino)-4-fluoro-2-((S)-2-hydroxypropoxy)phenyl)-4-methyl-1,4-dihydro-5H-tetrazol-5-one]",< 30,0.0898
"Cn1nnn(-c2cc(Nc3ncc(C#N)c(NC[C@@H]4CCCN5CCCC[C@H]45)n3)c(F)cc2OCC(O)(C(F)(F)F)C(F)(F)F)c1=O [Compound 134, 2-((2-fluoro-5-(4-methyl-5-oxo-4,5-dihydro-1H-tetrazol-1-yl)-4-(3,3,3-trifluoro-2-hydroxy-2-(trifluoromethyl)propoxy)phenyl)amino)-4-((((1S,9aR)-octahydro-2H-quinolizin-1-yl)methyl)amino)pyrimidine-5-carbonitrile]",< 30,0.908
"COc1cc(Nc2ncc(F)c(NC[C@@H]3CCCN4CCCC[C@H]34)n2)cc(OC)c1 [Compound 11, 5-fluoro-N4-(((1S,9aR)-octahydro-1H-quinolizin-1-yl)methyl)-N2-(3,5-dimethoxyphenyl)pyrimidine-2,4-diamine]",< 30,1.08
"N#Cc1cc(Nc2ncc(C(F)(F)F)c(NC[C@@H]3CCCN4CCCC[C@H]34)n2)c(F)cc1C1CC1 [Compound 110, 5-(4-(((1S,9aR)-octahydro-1H-quinolizin-1-yl)methylamino)-5-(trifluoromethyl)pyrimidin-2-ylamino)-2-cyclopropyl-4-fluorobenzonitrile]",< 30,10.7
"N#Cc1cc(Nc2ncc(Cl)c(NCC3CCCN4CCCCC34)n2)ccc1C1CC1 [Compound 5, 5-(4-(((1S,9aR)-octahydro-1H-quinolizin-9-yl)methylamino)-5-chloropyrimidin-2-ylamino)-2-cyclopropylbenzonitrile]",< 30,0.12
"Cc1cnc(Nc2cc(-n3nnn(C)c3=O)c(C3CC3)cc2F)nc1NC[C@@H]1CCCN2CCCC[C@H]12 [Compound 61, 1-(5-(4-(((1S,9aR)-octahydro-1H-quinolizin-1-yl)methylamino)-5-methylpyrimidin-2-ylamino)-2-cyclopropyl-4-fluorophenyl)-4-methyl-1H-tetrazol-5(4H)-one]",< 30,1.98
